Test results: ChEMBL document CHEMBL3232845 (Bioorg Med Chem Lett, 2014)

What was measured:
[1] = Apparent permeability of the compound from apical to basolateral direction in pig LLC-PK1 cells; assay type: ADME, cell-based, Sus scrofa
[2] = Volume of distribution in mouse; assay type: ADME, organism-based; conditions: in vivo
[3] = Oral bioavailability in mouse at 30 mg/kg; assay type: ADME, organism-based; conditions: in vivo
[4] = target: RAC-alpha serine/threonine-protein kinase (Homo sapiens) (UniProt P31749); assay: Inhibition of human AKT1 assessed as enzyme activity at 1 uM relative to control; parameters: scale not given: the % may be the effect or the level left
[5] = target: Serine/threonine-protein kinase BRSK2 (Homo sapiens) (UniProt Q8IWQ3); assay: Inhibition of human BrSK2 assessed as enzyme activity at 1 uM relative to control; parameters: scale not given: the % may be the effect or the level left
[6] = target: Calcium/calmodulin-dependent protein kinase type II subunit delta (Homo sapiens) (UniProt Q13557); assay: Inhibition of human CAMK2d assessed as enzyme activity at 1 uM relative to control; parameters: scale not given: the % may be the effect or the level left
[7] = target: Cyclin-dependent kinase 5/CDK5 activator 1 (Homo sapiens) (UniProt Q00535+Q15078); assay: Inhibition of human CDK5/p25 assessed as enzyme activity at 1 uM relative to control; assay type: protein-complex assay; parameters: scale not given: the % may be the effect or the level left
[8] = target: CDK9/cyclin T1 (Homo sapiens) (UniProt O60563+P50750); assay: Inhibition of human CDK9/cyclinT1 assessed as enzyme activity at 1 uM relative to control; assay type: protein-complex assay; parameters: scale not given: the % may be the effect or the level left
[9] = target: Serine/threonine-protein kinase Chk2 (Homo sapiens) (UniProt O96017); assay: Inhibition of human CHK2 assessed as enzyme activity at 1 uM relative to control; parameters: scale not given: the % may be the effect or the level left
[10] = target: Casein kinase I isoform gamma-2 (Homo sapiens) (UniProt P78368); assay: Inhibition of human CK1gamma2 assessed as enzyme activity at 1 uM relative to control; parameters: scale not given: the % may be the effect or the level left
[11] = target: Serine/threonine-protein kinase DCLK2 (Homo sapiens) (UniProt Q8N568); assay: Inhibition of human DCAMKL2 assessed as enzyme activity at 1 uM relative to control; parameters: scale not given: the % may be the effect or the level left
Sequence of Serine/threonine-protein kinase DCLK2 (Homo sapiens) (Q8N568 whole entry): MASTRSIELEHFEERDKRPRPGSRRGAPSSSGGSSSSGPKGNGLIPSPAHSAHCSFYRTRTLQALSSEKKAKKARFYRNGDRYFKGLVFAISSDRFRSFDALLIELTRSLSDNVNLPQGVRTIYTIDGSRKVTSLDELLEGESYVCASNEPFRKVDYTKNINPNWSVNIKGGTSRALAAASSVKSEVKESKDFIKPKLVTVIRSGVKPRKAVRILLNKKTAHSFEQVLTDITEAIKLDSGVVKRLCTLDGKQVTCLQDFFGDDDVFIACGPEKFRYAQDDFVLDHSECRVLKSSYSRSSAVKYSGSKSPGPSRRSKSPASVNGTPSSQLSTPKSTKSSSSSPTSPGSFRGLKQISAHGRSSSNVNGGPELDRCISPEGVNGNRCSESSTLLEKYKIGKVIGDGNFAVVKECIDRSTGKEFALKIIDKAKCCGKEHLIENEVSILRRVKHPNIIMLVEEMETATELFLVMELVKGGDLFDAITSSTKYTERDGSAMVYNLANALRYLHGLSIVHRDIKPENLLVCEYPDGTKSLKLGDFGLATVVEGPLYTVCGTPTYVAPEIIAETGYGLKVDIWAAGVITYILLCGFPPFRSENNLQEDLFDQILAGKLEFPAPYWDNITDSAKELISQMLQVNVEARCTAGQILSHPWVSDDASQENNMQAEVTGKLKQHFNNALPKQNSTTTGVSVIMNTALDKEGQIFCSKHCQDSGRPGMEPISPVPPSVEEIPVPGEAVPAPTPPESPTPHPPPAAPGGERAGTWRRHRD

[12] = target: Mitogen-activated protein kinase 3 (Homo sapiens) (UniProt P27361); assay: Inhibition of human ERK1 assessed as enzyme activity at 1 uM relative to control; parameters: scale not given: the % may be the effect or the level left
[13] = target: Mitogen-activated protein kinase 1 (Homo sapiens) (UniProt P28482); assay: Inhibition of human ERK2 assessed as enzyme activity at 1 uM relative to control; parameters: scale not given: the % may be the effect or the level left
[14] = target: Ephrin type-A receptor 2 (Homo sapiens) (UniProt P29317); assay: Inhibition of human EphA2 assessed as enzyme activity at 1 uM relative to control; parameters: scale not given: the % may be the effect or the level left
[15] = target: Proto-oncogene tyrosine-protein kinase Src (Homo sapiens) (UniProt P12931); assay: Inhibition of human Src assessed as enzyme activity at 1 uM relative to control; parameters: scale not given: the % may be the effect or the level left
[16] = target: Serine/threonine-protein kinase TAO1 (Homo sapiens) (UniProt Q7L7X3); assay: Inhibition of human TAO1 assessed as enzyme activity at 1 uM relative to control; parameters: scale not given: the % may be the effect or the level left
Sequence of Serine/threonine-protein kinase TAO1 (Homo sapiens) (Q7L7X3 whole entry): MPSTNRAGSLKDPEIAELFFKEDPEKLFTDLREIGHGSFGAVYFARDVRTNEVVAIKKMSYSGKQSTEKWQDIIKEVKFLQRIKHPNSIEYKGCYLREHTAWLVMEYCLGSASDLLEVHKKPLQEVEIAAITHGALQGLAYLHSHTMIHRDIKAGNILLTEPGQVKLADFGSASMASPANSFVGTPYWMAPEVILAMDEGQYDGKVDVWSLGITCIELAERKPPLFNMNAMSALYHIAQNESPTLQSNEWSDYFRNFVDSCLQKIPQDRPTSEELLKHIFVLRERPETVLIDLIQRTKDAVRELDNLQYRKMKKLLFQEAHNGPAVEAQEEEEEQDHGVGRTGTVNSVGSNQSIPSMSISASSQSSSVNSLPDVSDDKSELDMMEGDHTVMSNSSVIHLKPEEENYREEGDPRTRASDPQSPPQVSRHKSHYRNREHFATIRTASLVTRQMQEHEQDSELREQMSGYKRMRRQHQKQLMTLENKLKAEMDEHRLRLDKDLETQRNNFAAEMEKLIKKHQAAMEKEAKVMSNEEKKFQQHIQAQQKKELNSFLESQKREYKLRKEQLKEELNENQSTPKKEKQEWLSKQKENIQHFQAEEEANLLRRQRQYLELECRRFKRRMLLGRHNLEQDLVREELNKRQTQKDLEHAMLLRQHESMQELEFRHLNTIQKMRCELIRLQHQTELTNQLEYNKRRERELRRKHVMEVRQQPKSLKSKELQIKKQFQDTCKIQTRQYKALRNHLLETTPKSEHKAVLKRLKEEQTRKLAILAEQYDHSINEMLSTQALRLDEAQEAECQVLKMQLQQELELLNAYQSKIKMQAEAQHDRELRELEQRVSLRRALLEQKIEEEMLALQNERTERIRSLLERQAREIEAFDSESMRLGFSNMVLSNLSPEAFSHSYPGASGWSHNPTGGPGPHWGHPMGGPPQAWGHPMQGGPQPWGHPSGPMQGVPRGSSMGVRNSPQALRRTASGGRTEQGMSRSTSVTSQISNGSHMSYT

[17] = target: Serine/threonine-protein kinase TBK1 (Homo sapiens) (UniProt Q9UHD2); assay: Inhibition of human TBK1 assessed as enzyme activity at 1 uM relative to control; parameters: scale not given: the % may be the effect or the level left
[18] = target: Serine/threonine-protein kinase ULK2 (Homo sapiens) (UniProt Q8IYT8); assay: Inhibition of human ULK2 assessed as enzyme activity at 1 uM relative to control; parameters: scale not given: the % may be the effect or the level left
Sequence of Serine/threonine-protein kinase ULK2 (Homo sapiens) (Q8IYT8 whole entry): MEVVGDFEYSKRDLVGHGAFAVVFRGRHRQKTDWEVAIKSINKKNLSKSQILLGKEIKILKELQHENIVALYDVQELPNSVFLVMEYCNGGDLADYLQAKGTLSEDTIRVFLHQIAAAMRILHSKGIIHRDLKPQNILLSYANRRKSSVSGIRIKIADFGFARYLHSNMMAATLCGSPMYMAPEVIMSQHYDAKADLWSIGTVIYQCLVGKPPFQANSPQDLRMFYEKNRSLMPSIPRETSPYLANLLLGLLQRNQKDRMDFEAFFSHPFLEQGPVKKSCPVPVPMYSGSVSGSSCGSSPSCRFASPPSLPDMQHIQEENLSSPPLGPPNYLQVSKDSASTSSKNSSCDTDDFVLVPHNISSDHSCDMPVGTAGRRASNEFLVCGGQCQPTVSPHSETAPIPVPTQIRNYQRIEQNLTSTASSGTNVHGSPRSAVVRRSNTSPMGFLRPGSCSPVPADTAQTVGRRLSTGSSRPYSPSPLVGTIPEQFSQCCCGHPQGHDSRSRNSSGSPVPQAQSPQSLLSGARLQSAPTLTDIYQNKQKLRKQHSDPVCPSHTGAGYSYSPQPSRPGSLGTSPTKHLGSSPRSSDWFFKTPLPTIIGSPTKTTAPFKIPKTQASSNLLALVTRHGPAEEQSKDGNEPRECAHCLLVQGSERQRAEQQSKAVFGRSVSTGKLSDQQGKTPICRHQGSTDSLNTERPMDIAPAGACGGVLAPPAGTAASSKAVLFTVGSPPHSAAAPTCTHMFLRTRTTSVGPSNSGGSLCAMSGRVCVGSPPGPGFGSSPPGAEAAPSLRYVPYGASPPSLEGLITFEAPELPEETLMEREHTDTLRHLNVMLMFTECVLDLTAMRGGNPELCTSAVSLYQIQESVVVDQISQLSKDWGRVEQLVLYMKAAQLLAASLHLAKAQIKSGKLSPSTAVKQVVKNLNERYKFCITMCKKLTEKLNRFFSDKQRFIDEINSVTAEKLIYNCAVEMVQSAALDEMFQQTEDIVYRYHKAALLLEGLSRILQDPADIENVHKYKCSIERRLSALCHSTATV

[19] = target: Serine/threonine-protein kinase WNK3 (Homo sapiens) (UniProt Q9BYP7); assay: Inhibition of human WNK3 assessed as enzyme activity at 1 uM relative to control; parameters: scale not given: the % may be the effect or the level left
[20] = target: RAF proto-oncogene serine/threonine-protein kinase (Homo sapiens) (UniProt P04049); assay: Inhibition of human c-RAF assessed as enzyme activity at 1 uM relative to control; parameters: scale not given: the % may be the effect or the level left
[21] = target: Eukaryotic elongation factor 2 kinase (Homo sapiens) (UniProt O00418); assay: Inhibition of human eEF-2K assessed as enzyme activity at 1 uM relative to control; parameters: scale not given: the % may be the effect or the level left
[22] = target: mTOR/FKBP12A/FKBP12B (Homo sapiens) (UniProt P62942+P68106+P42345); assay: Inhibition of human mTOR/FKBP12 assessed as enzyme activity at 1 uM relative to control; assay type: protein-complex assay; parameters: scale not given: the % may be the effect or the level left
[23] = target: Ribosomal protein S6 kinase alpha-5 (Homo sapiens) (UniProt O75582); assay: Inhibition of human MSK1 assessed as enzyme activity at 1 uM relative to control; parameters: scale not given: the % may be the effect or the level left
[24] = target: cAMP-dependent protein kinase catalytic subunit alpha (Homo sapiens) (UniProt P17612); assay: Inhibition of human PKAC-alpha assessed as enzyme activity at 1 uM relative to control; parameters: scale not given: the % may be the effect or the level left
[25] = target: Protein kinase C gamma type (Homo sapiens) (UniProt P05129); assay: Inhibition of human PKCgamma assessed as enzyme activity at 1 uM relative to control; parameters: scale not given: the % may be the effect or the level left
[26] = target: Protein kinase C zeta type (Homo sapiens) (UniProt Q05513); assay: Inhibition of human PKCzeta assessed as enzyme activity at 1 uM relative to control; parameters: scale not given: the % may be the effect or the level left
[27] = target: Serine/threonine-protein kinase PLK2 (Homo sapiens) (UniProt Q9NYY3); assay: Inhibition of human Plk2 assessed as enzyme activity at 1 uM relative to control; parameters: scale not given: the % may be the effect or the level left
[28] = target: cAMP-dependent protein kinase catalytic subunit PRKX (Homo sapiens) (UniProt P51817); assay: Inhibition of human PrKX assessed as enzyme activity at 1 uM relative to control; parameters: scale not given: the % may be the effect or the level left
[29] = target: Receptor-interacting serine/threonine-protein kinase 2 (Homo sapiens) (UniProt O43353); assay: Inhibition of human RIPK2 assessed as enzyme activity at 1 uM relative to control; parameters: scale not given: the % may be the effect or the level left
[30] = target: Serine/threonine-protein kinase SIK1 (Homo sapiens) (UniProt P57059); assay: Inhibition of human SIK assessed as enzyme activity at 1 uM relative to control; parameters: scale not given: the % may be the effect or the level left
[31] = target: SRSF protein kinase 2 (Homo sapiens) (UniProt P78362); assay: Inhibition of human SRPK2 assessed as enzyme activity at 1 uM relative to control; parameters: scale not given: the % may be the effect or the level left
[32] = target: Ephrin type-A receptor 3 (Homo sapiens) (UniProt P29320); assay: Inhibition of human EphA3 assessed as enzyme activity at 1 uM relative to control; parameters: scale not given: the % may be the effect or the level left
Sequence of Ephrin type-A receptor 3 (Homo sapiens) (P29320 whole entry): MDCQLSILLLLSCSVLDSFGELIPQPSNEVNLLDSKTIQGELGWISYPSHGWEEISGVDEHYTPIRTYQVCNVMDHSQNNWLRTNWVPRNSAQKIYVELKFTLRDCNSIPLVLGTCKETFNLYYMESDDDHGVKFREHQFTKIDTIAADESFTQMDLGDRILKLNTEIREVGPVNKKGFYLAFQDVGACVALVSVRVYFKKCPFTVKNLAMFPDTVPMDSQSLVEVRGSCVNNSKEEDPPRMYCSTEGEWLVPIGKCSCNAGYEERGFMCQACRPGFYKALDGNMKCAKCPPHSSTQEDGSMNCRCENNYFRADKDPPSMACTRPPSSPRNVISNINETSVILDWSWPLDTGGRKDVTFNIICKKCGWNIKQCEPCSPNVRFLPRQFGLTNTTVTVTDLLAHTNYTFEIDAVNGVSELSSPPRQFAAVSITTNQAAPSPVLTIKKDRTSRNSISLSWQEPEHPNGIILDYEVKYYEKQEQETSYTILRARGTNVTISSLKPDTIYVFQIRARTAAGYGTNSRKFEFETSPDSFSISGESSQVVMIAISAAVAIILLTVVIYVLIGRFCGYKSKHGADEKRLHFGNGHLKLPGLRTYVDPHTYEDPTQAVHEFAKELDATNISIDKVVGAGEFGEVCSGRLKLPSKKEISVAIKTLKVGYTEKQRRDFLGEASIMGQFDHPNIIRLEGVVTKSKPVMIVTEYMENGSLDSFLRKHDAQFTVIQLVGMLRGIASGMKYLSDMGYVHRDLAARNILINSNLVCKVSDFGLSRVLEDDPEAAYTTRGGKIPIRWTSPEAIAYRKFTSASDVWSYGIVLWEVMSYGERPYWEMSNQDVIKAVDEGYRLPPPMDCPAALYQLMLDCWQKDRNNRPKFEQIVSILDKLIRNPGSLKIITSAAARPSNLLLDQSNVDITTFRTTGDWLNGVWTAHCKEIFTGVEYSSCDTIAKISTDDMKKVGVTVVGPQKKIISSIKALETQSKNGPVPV

[33] = target: Ephrin type-B receptor 1 (Homo sapiens) (UniProt P54762); assay: Inhibition of human EphB1 assessed as enzyme activity at 1 uM relative to control; parameters: scale not given: the % may be the effect or the level left
[34] = target: Focal adhesion kinase 1 (Homo sapiens) (UniProt Q05397); assay: Inhibition of human FAK assessed as enzyme activity at 1 uM relative to control; parameters: scale not given: the % may be the effect or the level left
[35] = target: Fibroblast growth factor receptor 1 (Homo sapiens) (UniProt P11362); assay: Inhibition of human FGFR1 assessed as enzyme activity at 1 uM relative to control; parameters: scale not given: the % may be the effect or the level left
[36] = target: Tyrosine-protein kinase Fgr (Homo sapiens) (UniProt P09769); assay: Inhibition of human Fgr assessed as enzyme activity at 1 uM relative to control; parameters: scale not given: the % may be the effect or the level left
[37] = target: Insulin receptor-related protein (Homo sapiens) (UniProt P14616); assay: Inhibition of human IRR assessed as enzyme activity at 1 uM relative to control; parameters: scale not given: the % may be the effect or the level left
[38] = target: Mitogen-activated protein kinase 9 (Homo sapiens) (UniProt P45984); assay: Inhibition of human JNK2alpha2 assessed as enzyme activity at 1 uM relative to control; parameters: scale not given: the % may be the effect or the level left
Sequence of Mitogen-activated protein kinase 9 (Homo sapiens) (P45984 whole entry, looked up): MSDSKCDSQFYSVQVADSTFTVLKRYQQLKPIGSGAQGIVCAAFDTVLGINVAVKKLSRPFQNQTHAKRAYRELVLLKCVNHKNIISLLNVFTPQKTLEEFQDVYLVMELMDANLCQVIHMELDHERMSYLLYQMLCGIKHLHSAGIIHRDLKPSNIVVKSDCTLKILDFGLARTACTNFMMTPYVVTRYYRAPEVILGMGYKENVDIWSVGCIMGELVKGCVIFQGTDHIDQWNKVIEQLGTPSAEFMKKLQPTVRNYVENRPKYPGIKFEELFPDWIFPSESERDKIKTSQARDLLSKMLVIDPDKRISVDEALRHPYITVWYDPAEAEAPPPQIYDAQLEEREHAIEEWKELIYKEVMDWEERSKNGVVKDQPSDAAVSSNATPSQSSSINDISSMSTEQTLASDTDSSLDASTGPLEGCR

[39] = target: Serine/threonine-protein kinase MARK2 (Homo sapiens) (UniProt Q7KZI7); assay: Inhibition of human MARK2 assessed as enzyme activity at 1 uM relative to control; parameters: scale not given: the % may be the effect or the level left
Sequence of Serine/threonine-protein kinase MARK2 (Homo sapiens) (Q7KZI7 whole entry): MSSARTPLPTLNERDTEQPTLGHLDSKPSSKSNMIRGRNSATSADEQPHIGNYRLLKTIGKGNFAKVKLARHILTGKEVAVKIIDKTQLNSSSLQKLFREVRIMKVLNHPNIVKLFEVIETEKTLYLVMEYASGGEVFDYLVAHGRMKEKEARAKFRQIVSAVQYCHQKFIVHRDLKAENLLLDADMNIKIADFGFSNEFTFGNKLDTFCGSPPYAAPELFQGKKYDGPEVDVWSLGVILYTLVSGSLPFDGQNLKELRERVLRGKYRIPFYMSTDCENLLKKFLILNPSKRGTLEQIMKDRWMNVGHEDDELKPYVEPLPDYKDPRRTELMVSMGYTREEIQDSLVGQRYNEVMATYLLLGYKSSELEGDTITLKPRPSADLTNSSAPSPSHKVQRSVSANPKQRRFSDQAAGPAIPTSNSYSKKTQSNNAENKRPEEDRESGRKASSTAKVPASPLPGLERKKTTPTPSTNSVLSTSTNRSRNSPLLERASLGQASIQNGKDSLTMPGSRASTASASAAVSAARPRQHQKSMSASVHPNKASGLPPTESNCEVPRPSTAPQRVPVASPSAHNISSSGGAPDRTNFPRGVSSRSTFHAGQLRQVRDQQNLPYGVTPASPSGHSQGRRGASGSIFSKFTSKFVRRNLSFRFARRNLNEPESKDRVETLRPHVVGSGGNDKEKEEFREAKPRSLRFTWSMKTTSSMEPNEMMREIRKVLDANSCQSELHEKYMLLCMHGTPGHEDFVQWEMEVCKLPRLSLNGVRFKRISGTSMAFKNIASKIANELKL

Papp A→B [1]: > 8 ×10⁻⁶ cm/s
Vd [2]: 0.25 L/kg
bioavailability [3]: 60%
Activity [4]: 108%
Activity [5]: 100%
Activity [6]: 94.5%
Activity [7]: 102%
Activity [8]: 104%
Activity [9]: 100%
Activity [10]: 99.5%
Activity [11]: 148%
Activity [12]: 99%
Activity [13]: 97%
Activity [14]: 99.5%
Activity [15]: 83.5%
Activity [16]: 88.5%
Activity [17]: 98%
Activity [18]: 99.5%
Activity [19]: 107%
Activity [20]: 1.5%
Activity [21]: 128%
Activity [22]: 104%
Activity [23]: 132%
Activity [24]: 110%
Activity [25]: 101%
Activity [26]: 103%
Activity [27]: 102%
Activity [28]: 109%
Activity [29]: 98%
Activity [30]: 143%
Activity [31]: 96.5%
Activity [32]: 108%
Activity [33]: 101%
Activity [34]: 102%
Activity [35]: 110%
Activity [36]: 105%
Activity [37]: 101%
Activity [38]: 106%
Activity [39]: 100%
SMILES: CCCS(=O)(=O)Nc1cccc(Nc2ccc3ncn(C)c(=O)c3c2)c1C#N
